Experimental data published in patent US8778964B2, “Hydroxy-substituted imidazo[1,2-a]-pyridinecarboxamides and their use” (Bayer Pharma Aktiengesellschaft, priority 2012, dated 2014).
Where a name gives a salt, the structure may show the parent alone.

Test system: recombinant guanylate cyclase reporter cell line
Assay: Action on recombinant guanylate cyclase reporter cell line (MEC)
Type: cell-based
Settings: in some cases mean values obtained from individual determinations
In short: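 Cell-based reporter assay with recombinant guanylate cyclase expressed in a reporter cell line, per a published method. Activity reported as minimal effective concentration (MEC), in some cases as the mean of individual determinations.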

Structure (SMILES)	minimal effective concentration [µM]
Cc1nc2c(OCc3c(F)cccc3F)cccn2c1C(=O)N[C@@H]1CCC[C@@H]1O [Example 37, 8-[(2,6-difluorobenzyl)oxy]-N-[(1R,2S)-2-hydroxycyclopentyl]-2-methylimidazo[1,2-a]-pyridine-3-carboxamide]	0.3
CCC[C@H](CO)NC(=O)c1c(C)nc2c(OCC3CCCCC3)cccn12 [Example 67, 8-(cyclohexylmethoxy)-N-[(2R)-1-hydroxypentan-2-yl]-2-methylimidazo[1,2-a]pyridine-3-carboxamide]	0.03
Cc1nc2c(OCc3c(F)cccc3F)cccn2c1C(=O)NC(CO)c1ccc(F)cc1 (single isomer, unassigned; ent-8) [Example 107, ent-8-[(2,6-Difluorobenzyl)oxy]-N-[1-(4-fluorophenyl)-2-hydroxyethyl]-2-methylimidazo[1,2-a]-pyridine-3-carboxamide]	0.1
Cc1nc2c(OCC3CCCCC3)cccn2c1C(=O)NC[C@H](O)CO [Example 68, 8-(cyclohexylmethoxy)-N-[(2S)-2,3-dihydroxypropyl]-2-methylimidazo[1,2-a]pyridine-3-carboxamide]	0.03
Cc1nc2c(OCc3c(F)cccc3F)cccn2c1C(=O)N[C@H](C)CO [Example 118, 8-[(2,6-difluorobenzyl)oxy]-N-[(2R)-1-hydroxypropan-2-yl]-2-methylimidazo[1,2-a]-pyridine-3-carboxamide]	0.3
Cc1nc2c(OCc3c(F)cccc3F)cccn2c1C(=O)N[C@@H](CO)CCCO [Example 130, 8-[(2,6-difluorobenzyl)oxy]-N-[(2R)-1,5-dihydroxypentan-2-yl]-2-methylimidazo[1,2-a]pyridine-3-carboxamide]	1
CCCC[C@H](CO)NC(=O)c1c(C)nc2c(OCc3c(F)cccc3F)cc(C3CC3)cn12 [Example 61, 6-cyclopropyl-8-[(2,6-difluorobenzyl)oxy]-N-[(2R)-1-hydroxyhexan-2-yl]-2-methylimidazo[1,2-a]pyridine-3-carboxamide]	1
Cc1nc2c(OCc3c(F)cccc3F)cccn2c1C(=O)NC(CO)COCC(C)C (racemic) [Example 163, rac-8-[(2,6-Difluorobenzyl)oxy]-N-(1-hydroxy-3-isobutoxypropan-2-yl)-2-methylimidazo[1,2-a]-pyridine-3-carboxamide]	1
Cc1nc2c(OCC3CCCCC3)cccn2c1C(=O)NC[C@@H](O)CO [Example 80, 8-(cyclohexylmethoxy)-N-[(2R)-2,3-dihydroxypropyl]-2-methylimidazo[1,2-a]pyridine-3-carboxamide]	0.3
Cc1nc2c(OCc3c(F)cccc3F)cccn2c1C(=O)N[C@H]1c2ccccc2C[C@H]1O [Example 40, 8-[(2,6-difluorobenzyl)oxy]-N-[(1S,2R)-2-hydroxy-2,3-dihydro-1H-inden-1-yl]-2-methylimidazo[1,2-a]pyridine-3-carboxamide]	0.1
Cc1nc2c(OCc3c(F)cccc3F)cccn2c1C(=O)NCCO [Example 21, 8-[(2,6-difluorobenzyl)oxy]-N-(2-hydroxyethyl)-2-methylimidazo[1,2-a]pyridine-3-carboxamide]	1
Cc1nc2c(OCc3c(F)cccc3F)cccn2c1C(=O)NC(C)(C)CO [Example 34, 8-[(2,6-difluorobenzyl)oxy]-N-(1-hydroxy-2-methylpropan-2-yl)-2-methylimidazo[1,2-a]-pyridine-3-carboxamide]	0.3
Cc1nc2c(OCc3c(F)cccc3F)cccn2c1C(=O)NC(CO)CCCC(F)(F)F (single isomer, unassigned; ent-8) [Example 123, ent-8-[(2,6-Difluorobenzyl)oxy]-2-methyl-N-(6,6,6-trifluoro-1-hydroxyhexan-2-yl)imidazo[1,2-a]-pyridine-3-carboxamide]	0.03
Cc1nc2c(OCc3c(F)cccc3F)cccn2c1C(=O)NC(CO)c1ccc(S(C)(=O)=O)cc1 (racemic) [Example 120, rac-8-[(2,6-difluorobenzyl)oxy]-N-{2-hydroxy-1-[4-(methylsulphonyl)phenyl]ethyl}-2-methylimidazo[1,2-a]pyridine-3-carboxamide]	1
CCCC[C@H](CO)NC(=O)c1c(C)nc2c(OCc3c(F)cccc3Cl)cccn12 [Example 3, 8-[(2-chloro-6-fluorobenzyl)oxy]-N-[(2R)-1-hydroxyhexan-2-yl]-2-methylimidazo[1,2-a]pyridine-3-carboxamide]	0.1
Cc1nc2c(OCC3CCC3)cccn2c1C(=O)NCCC1(O)CCCCC1 [Example 99, 8-(cyclobutylmethoxy)-N-[2-(1-hydroxycyclohexyl)ethyl]-2-methylimidazo[1,2-a]pyridine-3-carboxamide]	3
Cc1nc2c(OCc3c(F)cccc3F)cccn2c1C(=O)NC(CO)CCC(O)C(F)(F)F (single isomer, unassigned) [Example 138, 8-[(2,6-Difluorobenzyl)oxy]-2-methyl-N-(6,6,6-trifluoro-1,5-dihydroxyhexan-2-yl)imidazo[1,2-a]-pyridine-3-carboxamide]	0.1

Structure (SMILES)	minimal effective concentration [µM]
Cc1nc2c(OCC3CCCCC3)cccn2c1C(=O)NCCCO [Example 82, 8-(cyclohexylmethoxy)-N-(3-hydroxypropyl)-2-methylimidazo[1,2-a]pyridine-3-carboxamide]	0.3
Cc1nc2c(OCC3CCCCC3)cccn2c1C(=O)NC(CO)COC(C)(C)C (stereo not shown) [Example 94, N-(1-tert-butoxy-3-hydroxypropan-2-yl)-8-(cyclohexylmethoxy)-2-methylimidazo[1,2-a]-pyridine-3-carboxamide]	3
CCC[C@H](CO)NC(=O)c1c(C)nc2c(OCc3c(F)cccc3F)cccn12 [Example 18, 8-[(2,6-difluorobenzyl)oxy]-N-[(2R)-1-hydroxy-pentan-2-yl]-2-methylimidazo[1,2-a]pyridine-3-carboxamide]	0.1
Cc1nc2c(OCC3CCCCC3)cccn2c1C(=O)NC(CO)CO [Example 85, 8-(cyclohexylmethoxy)-N-(1,3-dihydroxypropan-2-yl)-2-methylimidazo[1,2-a]pyridine-3-carboxamide]	0.38
Cc1nc2c(OCC3CCCCC3)cccn2c1C(=O)N[C@@H](C)CO [Example 75, 8-(cyclohexylmethoxy)-N-[(2S)-1-hydroxypropan-2-yl]-2-methylimidazo[1,2-a]pyridine-3-carboxamide]	0.22
CCCC[C@@H](NC(=O)c1c(C)nc2c(OCc3c(F)cccc3F)cccn12)C(C)O (stereo partly drawn) [Example 140, 8-[(2,6-Difluorobenzyl)oxy]-N-[(3R)-2-hydroxyheptan-3-yl]-2-methylimidazo[1,2-a]pyridine-3-carboxamide]	0.03
CCCC[C@H](CO)NC(=O)c1c(C)nc2c(OCCC(C)C)cccn12 [Example 159, N-[(2R)-1-Hydroxyhexan-2-yl]-2-methyl-8-(3-methylbutoxy)imidazo[1,2-a]pyridine-3-carboxamide]	1
CCCC[C@H](CO)NC(=O)c1c(C)nc2c(OCc3c(F)cccc3F)cccn12 [Example 1, 8-[(2,6-Difluorobenzyl)oxy]-N-[(2R)-1-hydroxyhexan-2-yl]-2-methylimidazo[1,2-a]pyridine-3-carboxamide]	0.05
CCCCC(NC(=O)c1c(C)nc2c(OCCC(C)C)cc(C)cn12)C(C)(C)O (stereo not drawn) [Example 167, ent-N-(2-Hydroxy-2-methylheptan-3-yl)-2,6-dimethyl-8-(3-methylbutoxy)imidazo[1,2-a]pyridine-3-carboxamide]	2
CCCC[C@H](CO)NC(=O)c1c(C)nc2c(OCc3cccc(Cl)c3Cl)cccn12 [Example 9, 8-[(2,3-dichlorobenzyl)oxy]-N-[(2R)-1-hydroxy-hexan-2-yl]-2-methylimidazo[1,2-a]pyridine-3-carboxamide]	0.5
CCCC[C@@H](NC(=O)c1c(C)nc2c(OCc3c(F)cccc3F)cccn12)C(C)(C)O [Example 147, 8-[(2,6-Difluorobenzyl)oxy]-N-[(3R)-2-hydroxy-2-methylheptan-3-yl]-2-methylimidazo[1,2-a]-pyridine-3-carboxamide]	0.1
Cc1nc2c(OCc3c(F)cccc3F)cccn2c1C(=O)NC(C)(C)[C@H](C)O [Example 20, 8-[(2,6-difluorobenzyl)oxy]-N-[(3S)-3-hydroxy-2-methylbutan-2-yl]-2-methylimidazo[1,2-a]-pyridine-3-carboxamide]	1
C[C@@H](CO)NC(=O)c1cnc2c(OCC3CCCCC3)cccn12 [Example 59, 8-(cyclohexylmethoxy)-N-[(2S)-1-hydroxypropan-2-yl]imidazo[1,2-a]pyridine-3-carboxamide]	3
Cc1nc2c(OCc3c(F)cccc3F)cccn2c1C(=O)NC(CO)CC(F)(F)F (racemic) [Example 100, rac-8-[(2,6-Difluorobenzyl)oxy]-2-methyl-N-(4,4,4-trifluoro-1-hydroxybutan-2-yl)imidazo[1,2-a]-pyridine-3-carboxamide trifluoroacetate]	0.03
CCC(C)[C@H](CO)NC(=O)c1c(C)nc2c(OCC3CCCCC3)cccn12 (stereo partly drawn) [Example 96, 8-(cyclohexylmethoxy)-N-[(2R)-1-hydroxy-3-methylpentan-2-yl]-2-methylimidazo[1,2-a]pyridine-3-carboxamide]	3
Cc1nc2c(OCc3c(F)cccc3F)cccn2c1C(=O)NCCC1(O)CCCC1 [Example 117, 8-[(2,6-difluorobenzyl)oxy]-N-[2-(1-hydroxycyclopentyl)ethyl]-2-methylimidazo[1,2-a]pyridine-3-carboxamide]	0.03
CCCCC(NC(=O)c1c(C)nc2c(OC(C)c3c(F)cccc3F)cc(C)cn12)C(C)(C)O (single isomer, unassigned; ent-8) [Example 171, ent-8-[1-(2,6-Difluorophenyl)ethoxy]-N-(2-hydroxy-2-methylheptan-3-yl)-2,6-dimethylimidazo-[1,2-a]pyridine-3-carboxamide]	1
